Assays:
Assay type in all cases: cell-based
[1] = system: mouse intestinal organoids; test: cystic organoid percentage, organoids in conditioned media (SCM/QCM) with or without inhibitors or antibodies; settings: SCM-exposed organoids
Protocol: Twenty-four hours before collecting conditioned media (CM), MEFs were washed with serum-free DMEM twice, and serum-free DMEM was added. After 24 h in serum-free DMEM, this CM was collected, filtered using Steriflip filters (Millipore, #SE1M179M6) to remove cell debris, and concentrated using centrifugal filter units (Amicon ultra-15 centricon; Millipore, # UFC900324). […] CM was filtered and dialyzed for 24–48 h to remove the inhibitors before concentration.
(§1) The jejunum part of the small intestine was removed, flushed with PBS, opened longitudinally, then cut into 0.5 cm pieces. The collected tissues were washed with ice cold PBS multiple times by vortexing and incubated in PBS containing 2.5 mM EDTA for 5 min at 37 °C. After gentle shaking and aspiration, tissues were incubated in PBS containing 5 mM EDTA for 7 min at 37 °C. Tissues were then washed with PBS to remove EDTA and vigorously shaken to release crypts. The released crypts were passed through 70 μm strainers, washed with PBS, and pelleted by centrifugation at 200 × g.
(§2) 3-4 biological replicates of organoids from different mice were used per condition. Organoids were cultured in the indicated media, inhibitors, antibodies and/or recombinant proteins for 5 d and fixed in 4% formaldehyde in PBS. Organoids were imaged with a 4× Plan Fluor objective (NA: 0.13, Nikon) on a Nikon Ti-E inverted microscope equipped with a Neo scMOS camera (Andor, Oxford Instruments), a linear encoded automated stage (Applied Scientific Instrumentation), all run by NIS Elements software (Nikon). Organoids were imaged in brightfield and images covering the whole well were stitched and focused into one image projection with an extended depth of focus module (EDF; Nikon). One hundred to 200 organoids per replicate per condition were counted and used for quantification. The number of budding organoids in each condition was normalized by the number of budding organoids in untreated or DMSO treated controls to calculate cystic organoid percentage:1 Cysticorganoidpercentage=100×1−Numberofbuddingorganoidsfromexperiment/Numberofbuddingorganoidsfromcontrol

[2] = system: mouse intestinal organoids; test: cystic organoid percentage, co-culture with quiescent or senescent intestinal fibroblasts; parameters: key: % = 100×(1 − budding organoids treated/budding organoids control); settings: relative to DMSO = 0
Protocol: as §2
Mouse intestinal fibroblasts were purchased from Cell Biologics (#C57-6231) and cultured in Complete Fibroblast Medium (Cell Biologics, M2267) at 37 °C and 5% CO2. Cellular quiescence and senescence in mouse intestinal fibroblasts were induced by the similar methods described earlier for MEFs with minor modifications. Briefly, cellular quiescence was induced by culturing the fibroblasts in low serum (0.5% FBS), and cellular senescence was induced by 500 nM doxorubicin treatment for 5 days (doxorubicin; Sigma-Aldrich, #44583). Once cellular quiescence or senescence was induced, MEFs were maintained at 37 °C, 5% CO2, and 3% O2 for another 5 days. The quiescent or senescent fibroblasts were dissociated using 0.05% Trypsin-EDTA (Gibco, #25300-054) and counted for seeding. The same number of quiescent and senescent fibroblasts (5.2 × 10^4 cells) were mixed with intestinal organoids making total volume of 20 μl of Matrigel: organoid culture media mix, which was mounted on a 48 well plate.

[3] = system: YAP in mouse intestinal organoids; test: whole mount immunostaining for YAP nuclear localization
Protocol: For whole mount staining, freshly passaged crypts were mixed with Matrigel (Corning, #356231) and mounted to µ-Slide 8 well chamber slides (ibidi, #80826). Media were changed every 2–3 d. 5 days later, organoids in the chamber slides were then fixed in 4% formaldehyde in PBS for 30 min, permeabilized with 0.5% Triton X-100 for 1 h, and incubated in blocking solution (3% normal donkey serum (Sigma-Aldrich, #566460) and 5% BSA (Sigma-Aldrich, #A7979) in 0.1% Triton X-100 + PBS) for 1 h. Primary and secondary antibodies were diluted in blocking solution and added to fixed organoids. Organoids were incubated with primary antibodies overnight at 4 °C and with secondary antibodies for 2 h. ProLong Diamond Antifade Mountant (Invitrogen, # P36970) was added. Images were acquired with a Yokogawa CSU-W1/Zeiss 3i Marianas spinning disk confocal microscopy system. For each organoid, Z-planes up to 100 μm with 1 or 1.5 μm z-steps were acquired to quantify the number of cell types.

[4] = system: mouse intestinal organoids; test: cystic organoid percentage, organoids treated with recombinant Wnt ligands (Wnt3a, Wnt5a, Wnt11); settings: for cystic organoid percentage: SF.3p, Untreated = 0
Protocol: as §1, with “g. Resuspended crypts were mixed with Matrigel (Corning, #356231; Lot#8218007) and pipetted into culture plates. After mixture of crypts and Matrigel solidified, IntestiCult Organoid Growth Medium (Stem Cell Technologies, #06005; Lots #1000021927, #1000034230, #1000037372) was added. Seven days after seeding, organoids were resuspended in dissociation buffer (Gentle Cell Dissociation Reagent; Stem Cell Technologies, #07174), dissociated by pipetting, and seeded for experiments.” for “g.”
as §2

[5] = system: β-Catenin-dependent Wnt signaling (HEK293-TB cells); test: TOPbrite dual-luciferase Wnt reporter assay; settings: SF.3e
Protocol: Generation of HEK293 cells stably expressing a TOPbrite firefly luciferase Wnt reporter and pRL-SV40 Renilla luciferase (HEK293-TB) was previously described. HEK293-TB cells were maintained in DMEM/F12 (50:50), supplemented with 10% FBS, 2 mM Glutamax (Gibco, #35050-061) and 40 μg/ml hygromycin (Cellgro, #30-240-CR). For the luciferase reporter assay, HEK293-TB cells were seeded in 96-well plates (Falcon, #353377). The next day, cells were treated with indicated Wnt ligands (50 ng/ml) or CM diluted in culture media. After 24 h, the firefly and Renilla luciferase activity was measured using Dual-Glo Luciferase Assay system (Promega, #E2940) on a Perkin Elmer EnVision multilabel reader. The ratios of firefly luminescence to Renilla luminescence were calculated and normalized to control samples that were not treated.

Molecule: C=CC[C@@H]1/C=C(\C)C[C@H](C)C[C@H](OC)[C@H]2O[C@@](O)(C(=O)C(=O)N3CCCC[C@H]3C(=O)O[C@H](/C(C)=C/[C@@H]3CC[C@@H](O)[C@H](OC)C3)[C@H](C)[C@@H](O)CC1=O)[C@H](C)C[C@@H]2OC [FK506]
- effect on cystic organoid phenotype [1]: had no effect on this phenotype
- cystic organoids (sheet SF.5d) ([2]; 10 uM FK506, no fibroblasts, replicate 1): 16.7523
- cystic organoids (sheet SF.5d) ([2]; 10 uM FK506, no fibroblasts, replicate 2): 26.0945
- cystic organoids (sheet SF.5d) ([2]; 10 uM FK506, no fibroblasts, replicate 3): 24.3439
- cystic organoids (sheet SF.5d) ([2]; Q + 10uM FK506 (quiescent fibroblasts), replicate 1): 27.9243
- cystic organoids (sheet SF.5d) ([2]; Q + 10uM FK506 (quiescent fibroblasts), replicate 2): 44.452
- cystic organoids (sheet SF.5d) ([2]; Q + 10uM FK506 (quiescent fibroblasts), replicate 3): 38.0019
- cystic organoids (sheet SF.5d) ([2]; SEN + 10uM FK506 (senescent fibroblasts), replicate 1): 52.1362
- cystic organoids (sheet SF.5d) ([2]; SEN + 10uM FK506 (senescent fibroblasts), replicate 2): 72.7766
- cystic organoids (sheet SF.5d) ([2]; SEN + 10uM FK506 (senescent fibroblasts), replicate 3): 37.8556

Molecule: CN([C@@H](Cc1ccc(OS(=O)(=O)c2cccc3cnccc23)cc1)C(=O)N1CCN(c2ccccc2)CC1)S(=O)(=O)c1cccc2cnccc12 [KN-62]
- effect on cystic organoid phenotype [1]: suppressed the cystic organoid phenotype
- effect on nuclear localization of YAP [3]: reversed SCM- or Wnt5a-induced nuclear translocation of YAP

Molecule: O=C(O)c1ccc2c3c1cccc3c(=O)n1c3ccccc3nc21 [STO-609]
- effect on cystic organoid phenotype [1]: suppressed the cystic organoid phenotype
- effect on nuclear localization of YAP [3]: reversed SCM- or Wnt5a-induced nuclear translocation of YAP

Molecule: cyclosporin A
- effect on cystic organoid phenotype [1]: had no effect on this phenotype
- cystic organoids (sheet SF.5d) ([2]; 1 uM CsA, no fibroblasts, replicate 1): -0.1051
- cystic organoids (sheet SF.5d) ([2]; 1 uM CsA, no fibroblasts, replicate 2): -6.5368
- cystic organoids (sheet SF.5d) ([2]; 1 uM CsA, no fibroblasts, replicate 3): 5.663
- cystic organoids (sheet SF.5d) ([2]; Q + 1um CsA (quiescent fibroblasts), replicate 1): 19.8791
- cystic organoids (sheet SF.5d) ([2]; Q + 1um CsA (quiescent fibroblasts), replicate 2): 16.6126
- cystic organoids (sheet SF.5d) ([2]; Q + 1um CsA (quiescent fibroblasts), replicate 3): 9.858
- cystic organoids (sheet SF.5d) ([2]; SEN + 1uM CsA (senescent fibroblasts), replicate 1): 45.7387
- cystic organoids (sheet SF.5d) ([2]; SEN + 1uM CsA (senescent fibroblasts), replicate 2): 66.7022
- cystic organoids (sheet SF.5d) ([2]; SEN + 1uM CsA (senescent fibroblasts), replicate 3): 42.5108

B1: Wnt11: noncanonical Wnt ligand; recombinant protein, R&D Systems 6179-WN-010 (protein, UniProt O96014 25-354, looked up)
Protein Wnt-11: IKWLALSKTPSALALNQTQHCKQLEGLVSAQVQLCRSNLELMHTVVHAAREVMKACRRAFADMRWNCSSIELAPNYLLDLERGTRESAFVYALSAAAISHAIARACTSGDLPGCSCGPVPGEPPGPGNRWGGCADNLSYGLLMGAKFSDAPMKVKKTGSQANKLMRLHNSEVGRQALRASLEMKCKCHGVSGSCSIRTCWKGLQELQDVAADLKTRYLSATKVVHRPMGTRKHLVPKDLDIRPVKDSELVYLQSSPDFCMKNEKVGSHGTQDRQCNKTSNGSDSCDLMCCGRGYNPYTDRVVERCHCKYHWCCYVTCRRCERTVERYVCK
- cystic organoid percentage ([4]; 25ng/ml, replicate 1): 1.8358
- cystic organoid percentage ([4]; 25ng/ml, replicate 2): -0.2717
- cystic organoid percentage ([4]; 25ng/ml, replicate 3): -1.279
- cystic organoid percentage ([4]; 50ng/ml, replicate 1): -0.06739
- cystic organoid percentage ([4]; 50ng/ml, replicate 2): -5.163
- cystic organoid percentage ([4]; 50ng/ml, replicate 3): 1.176
- cystic organoid percentage ([4]; 100ng/ml, replicate 1): -0.2558
- cystic organoid percentage ([4]; 100ng/ml, replicate 2): -1.25
- cystic organoid percentage ([4]; 100ng/ml, replicate 3): 2.262
- cystic organoid percentage ([4]; 250 ng/ml, replicate 1): 2.331
- cystic organoid percentage ([4]; 250 ng/ml, replicate 2): -7.143
- cystic organoid percentage ([4]; 250 ng/ml, replicate 3): 1.176
- cystic organoid percentage ([4]; 500ng/ml, replicate 1): 2.331
- cystic organoid percentage ([4]; 500ng/ml, replicate 2): -1.6129
- cystic organoid percentage ([4]; 500ng/ml, replicate 3): 1.42
- cystic organoid percentage ([4]; 1ug/ml, replicate 1): 2.516
- cystic organoid percentage ([4]; 1ug/ml, replicate 3): -0.8403
- induction of cystic organoids ([4]; recombinant Wnt ligand added to crypt cultures): failed to induced cystic organoids
- TOPbrite dual-luciferase Wnt reporter activity ([5]; replicate 1): 0.9689
- TOPbrite dual-luciferase Wnt reporter activity ([5]; replicate 2): 1.428
- TOPbrite dual-luciferase Wnt reporter activity ([5]; replicate 3): 1.229
- TOPbrite dual-luciferase Wnt reporter activity ([5]; replicate 4): 1.621

Reference: publication PMC9834240, “Senescent cells perturb intestinal stem cell differentiation through Ptk7 induced noncanonical Wnt and YAP signaling” (Nature Communications, 2023)
